Experimental data published in ChEMBL document CHEMBL1201862, “PubChem BioAssay data set” (2004).
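Interpolation was linear, between the two tested concentrations surrounding the appropriate level; five concentrations were tested over 48 hours in 96-well plates. GI50 marks 50% less growth.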 Calls of active or inactive are those of the source. Rule as the data show it: active = GI50 up to about 1.1 µM and inactive = higher.

Columns and labels:
Assay in all cases: growth of human tumour cells (NCI), 48 h
OVCAR-5 = tested on: OVCAR-5
EKVX = tested on: EKVX
MDA-MB-231 = tested on: MDA-MB-231
SK-MEL-2 = tested on: SK-MEL-2
NCI-H226 = tested on: NCI-H226
HCT-116 = tested on: HCT-116
MOLT-4 = tested on: MOLT-4
NCI-H23 = tested on: NCI-H23
U-251 = tested on: U-251
SK-OV-3 = tested on: SK-OV-3
M14 = tested on: M14
HCC 2998 = tested on: HCC 2998
A549 = tested on: A549
COLO 205 = tested on: COLO 205
MDA-MB-435 = tested on: MDA-MB-435
CAKI-1 = tested on: CAKI-1
KM12 = tested on: KM12
K562 = tested on: K562
IGROV-1 = tested on: IGROV-1
HL-60 = tested on: HL-60

Row | Structure (SMILES) | GI50 (OVCAR-5) | GI50 (EKVX) | GI50 (MDA-MB-231) | GI50 (SK-MEL-2) | GI50 (NCI-H226) | GI50 (HCT-116) | GI50 (MOLT-4) | GI50 (NCI-H23) | GI50 (U-251) | GI50 (SK-OV-3) | GI50 (M14) | GI50 (HCC 2998) | GI50 (A549) | GI50 (COLO 205) | GI50 (MDA-MB-435) | GI50 (CAKI-1) | GI50 (KM12) | GI50 (K562) | GI50 (IGROV-1) | GI50 (HL-60)
1 | CCNC(=S)NNC(=O)c1csc(NC(=S)NC2CCCCC2)n1 | 26.9 µM (inactive) | > 100 µM (inactive) | 6.53 µM (inactive) | 12.3 µM (inactive) | > 100 µM (inactive) | 5.26 µM (inactive) | 3.11 µM (inactive) | 22.8 µM (inactive) | 9.95 µM (inactive) | 21.3 µM (inactive) | 11.6 µM (inactive) | 8.17 µM (inactive) | 16.9 µM (inactive) | 8.53 µM (inactive) | 4.1 µM (inactive) | 6.71 µM (inactive) | 11.1 µM (inactive) | – | – | –
2 | Cc1cc(=O)oc2cc(OC(=O)N(C)C)c(Cl)cc12 | > 100 µM (inactive) | > 100 µM (inactive) | > 100 µM (inactive) | 82.6 µM (inactive) | 29.3 µM (inactive) | > 100 µM (inactive) | > 100 µM (inactive) | > 100 µM (inactive) | 53 µM (inactive) | – | 83.9 µM (inactive) | > 100 µM (inactive) | > 100 µM (inactive) | 95.9 µM (inactive) | 65 µM (inactive) | > 100 µM (inactive) | > 100 µM (inactive) | > 100 µM (inactive) | > 100 µM (inactive) | 54 µM (inactive)
3 | O=c1onc2n1-c1cc(Cl)ccc1C(=S)N1CSCC21 (stereo not given) | > 100 µM (inactive) | > 100 µM (inactive) | > 100 µM (inactive) | > 100 µM (inactive) | > 100 µM (inactive) | > 100 µM (inactive) | > 100 µM (inactive) | – | > 100 µM (inactive) | > 100 µM (inactive) | > 100 µM (inactive) | > 100 µM (inactive) | > 100 µM (inactive) | > 100 µM (inactive) | > 100 µM (inactive) | > 100 µM (inactive) | 89.7 µM (inactive) | 26.7 µM (inactive) | > 100 µM (inactive) | –
4 | Cc1cc(-c2cc(C(C)(C)C)c(O)c(C(C)(C)C)c2)c(C)cc1-c1cc(C(C)(C)C)c(O)c(C(C)(C)C)c1 | > 100 µM (inactive) | > 100 µM (inactive) | > 100 µM (inactive) | > 100 µM (inactive) | > 100 µM (inactive) | > 100 µM (inactive) | > 100 µM (inactive) | > 100 µM (inactive) | > 100 µM (inactive) | > 100 µM (inactive) | > 100 µM (inactive) | – | > 100 µM (inactive) | > 100 µM (inactive) | 13.6 µM (inactive) | > 100 µM (inactive) | > 100 µM (inactive) | > 100 µM (inactive) | > 100 µM (inactive) | > 100 µM (inactive)
5 | Cc1ccc(Sc2ccccc2C23OC(C)(C4C(=O)N(c5ccccc5)C(=O)C42)N(C)C3=O)cc1 (stereo not given) | > 100 µM (inactive) | > 100 µM (inactive) | > 100 µM (inactive) | > 100 µM (inactive) | > 100 µM (inactive) | > 100 µM (inactive) | > 100 µM (inactive) | > 100 µM (inactive) | > 100 µM (inactive) | > 100 µM (inactive) | > 100 µM (inactive) | – | > 100 µM (inactive) | > 100 µM (inactive) | > 100 µM (inactive) | > 100 µM (inactive) | > 100 µM (inactive) | > 100 µM (inactive) | > 100 µM (inactive) | > 100 µM (inactive)
6 | COC(=O)C1(C(=O)OC)Cc2ccc(OC)cc2C2=C1C(=O)c1ccccc1C2=O | 6.01 µM (inactive) | 4.46 µM (inactive) | 1.99 µM (inactive) | 5.7 µM (inactive) | 17.7 µM (inactive) | 3.24 µM (inactive) | 1.53 µM (inactive) | 6.62 µM (inactive) | 5.56 µM (inactive) | – | 18.4 µM (inactive) | 19.5 µM (inactive) | 14.9 µM (inactive) | 20.3 µM (inactive) | 1.97 µM (inactive) | 0.423 µM (active) | 6.85 µM (inactive) | 1.84 µM (inactive) | 2.77 µM (inactive) | 2.24 µM (inactive)
7 | CN(C)CS/C(N)=N\C(O)C(Cl)(Cl)Cl (stereo not given) | > 100 µM (inactive) | > 100 µM (inactive) | > 100 µM (inactive) | > 100 µM (inactive) | > 100 µM (inactive) | > 100 µM (inactive) | > 100 µM (inactive) | > 100 µM (inactive) | > 100 µM (inactive) | – | > 100 µM (inactive) | > 100 µM (inactive) | > 100 µM (inactive) | – | > 100 µM (inactive) | > 100 µM (inactive) | > 100 µM (inactive) | > 100 µM (inactive) | > 100 µM (inactive) | –
8 | Cc1nc2sccn2c1C(=O)OCCOCCOCCOCCOC(=O)c1c(C)nc2sccn12 | > 100 µM (inactive) | 32.1 µM (inactive) | > 100 µM (inactive) | 76.4 µM (inactive) | 16 µM (inactive) | > 100 µM (inactive) | 18.2 µM (inactive) | 19.5 µM (inactive) | > 100 µM (inactive) | – | 43.4 µM (inactive) | > 100 µM (inactive) | > 100 µM (inactive) | 86.7 µM (inactive) | 45.4 µM (inactive) | > 100 µM (inactive) | 49.7 µM (inactive) | 35.5 µM (inactive) | > 100 µM (inactive) | 15.7 µM (inactive)
9 | COC1=CC(=O)c2c(cc(COP(=O)(OCC3OC(n4cc(F)c(=O)[nH]c4=O)CC3O)N(C)CCCCCl)n2C)C1=O (stereo not given) | 7.45 µM (inactive) | 3.86 µM (inactive) | 3.82 µM (inactive) | 17.7 µM (inactive) | 0.546 µM (active) | 0.138 µM (active) | 0.0527 µM (active) | 0.142 µM (active) | 0.409 µM (active) | – | 0.136 µM (active) | < 0.01 µM (active) | < 0.01 µM (active) | – | 1.04 µM (active) | 0.0102 µM (active) | 10 µM (inactive) | 1.98 µM (inactive) | 0.479 µM (active) | 0.195 µM (active)
10 | N#Cc1c(-c2ccccc2)c(C#N)c(=S)n(C2OC(CO)C(O)C(O)C2O)c1O (stereo not given) | > 100 µM (inactive) | – | > 100 µM (inactive) | > 100 µM (inactive) | > 100 µM (inactive) | – | > 100 µM (inactive) | > 100 µM (inactive) | – | > 100 µM (inactive) | > 100 µM (inactive) | – | > 100 µM (inactive) | – | > 100 µM (inactive) | > 100 µM (inactive) | > 100 µM (inactive) | > 100 µM (inactive) | > 100 µM (inactive) | > 100 µM (inactive)
11 | C/C(=N\O)c1ccc2ccc3ccccc3c2c1 | 52.2 µM (inactive) | 15.3 µM (inactive) | 28.1 µM (inactive) | 43 µM (inactive) | 26.4 µM (inactive) | 90.6 µM (inactive) | 18.5 µM (inactive) | 65.3 µM (inactive) | 29.8 µM (inactive) | > 100 µM (inactive) | 66.5 µM (inactive) | – | 31.8 µM (inactive) | 37.3 µM (inactive) | 22.2 µM (inactive) | 51.9 µM (inactive) | 21.5 µM (inactive) | 25.5 µM (inactive) | 44 µM (inactive) | 22.2 µM (inactive)
12 | O=c1cc(/C=C/c2ccc(O)c(O)c2)cc(/C=C/c2ccc(O)c(O)c2)o1 | 12.2 µM (inactive) | 8.11 µM (inactive) | 11.5 µM (inactive) | 11.6 µM (inactive) | 14.9 µM (inactive) | 8.17 µM (inactive) | 1.92 µM (inactive) | 14.9 µM (inactive) | 6.95 µM (inactive) | 11.5 µM (inactive) | 10.5 µM (inactive) | 6.68 µM (inactive) | 12.8 µM (inactive) | 12.1 µM (inactive) | 12.9 µM (inactive) | 10.9 µM (inactive) | 8.43 µM (inactive) | 2.9 µM (inactive) | 12.9 µM (inactive) | –
13 | Clc1cccc(/N=C/C=C/Nc2cccc(Cl)c2)c1 | 24.8 µM (inactive) | > 10 µM (inactive) | 15.7 µM (inactive) | – | > 10 µM (inactive) | 15 µM (inactive) | 22.2 µM (inactive) | 21.3 µM (inactive) | 16.5 µM (inactive) | – | – | 11.9 µM (inactive) | 28.5 µM (inactive) | 16.3 µM (inactive) | 15.6 µM (inactive) | 26.1 µM (inactive) | 14.1 µM (inactive) | – | 16 µM (inactive) | 18.9 µM (inactive)
14 | N=C(N)N1CCC(N2CCOCC2)CC1 | > 100 µM (inactive) | > 100 µM (inactive) | > 100 µM (inactive) | – | > 100 µM (inactive) | > 100 µM (inactive) | > 100 µM (inactive) | > 100 µM (inactive) | > 100 µM (inactive) | > 100 µM (inactive) | > 100 µM (inactive) | > 100 µM (inactive) | > 100 µM (inactive) | > 100 µM (inactive) | > 100 µM (inactive) | – | > 100 µM (inactive) | > 100 µM (inactive) | > 100 µM (inactive) | > 100 µM (inactive)
15 | CC(=O)NC1C(OCc2ccccc2)OC(CO)C(O)C1OC(C)C(=O)NC(C(=O)NC(CCC(=O)NCCCNc1ccc([N+](=O)[O-])c2[nH]c3ccccc3c(=O)c12)C(N)=O)C(C)C (stereo not given) | 59.6 µM (inactive) | > 100 µM (inactive) | 40.6 µM (inactive) | > 100 µM (inactive) | > 100 µM (inactive) | > 100 µM (inactive) | > 100 µM (inactive) | > 100 µM (inactive) | > 100 µM (inactive) | > 100 µM (inactive) | 51.9 µM (inactive) | – | > 100 µM (inactive) | > 100 µM (inactive) | > 100 µM (inactive) | > 100 µM (inactive) | > 100 µM (inactive) | – | > 100 µM (inactive) | > 100 µM (inactive)
